# Experimental data taken from ChEMBL document CHEMBL2407010, “Nitric oxide donating anilinopyrimidines: synthesis and biological evaluation as EGFR inhibitors” (Eur J Med Chem, 2013).
# Active and inactive are the calls of the source. The calls are words filed in the database; no cut-off is given here.
# Experiments:
# [1] = biological target: T1, Epidermal growth factor receptor (Homo sapiens, UniProt P00533); assay: Inhibition of wild type EGFR (unknown origin) using Tyr 4 peptide as substrate after 1.5 hrs by FRET based Z'-lyte assay
# T1 sequence (P00533 whole entry): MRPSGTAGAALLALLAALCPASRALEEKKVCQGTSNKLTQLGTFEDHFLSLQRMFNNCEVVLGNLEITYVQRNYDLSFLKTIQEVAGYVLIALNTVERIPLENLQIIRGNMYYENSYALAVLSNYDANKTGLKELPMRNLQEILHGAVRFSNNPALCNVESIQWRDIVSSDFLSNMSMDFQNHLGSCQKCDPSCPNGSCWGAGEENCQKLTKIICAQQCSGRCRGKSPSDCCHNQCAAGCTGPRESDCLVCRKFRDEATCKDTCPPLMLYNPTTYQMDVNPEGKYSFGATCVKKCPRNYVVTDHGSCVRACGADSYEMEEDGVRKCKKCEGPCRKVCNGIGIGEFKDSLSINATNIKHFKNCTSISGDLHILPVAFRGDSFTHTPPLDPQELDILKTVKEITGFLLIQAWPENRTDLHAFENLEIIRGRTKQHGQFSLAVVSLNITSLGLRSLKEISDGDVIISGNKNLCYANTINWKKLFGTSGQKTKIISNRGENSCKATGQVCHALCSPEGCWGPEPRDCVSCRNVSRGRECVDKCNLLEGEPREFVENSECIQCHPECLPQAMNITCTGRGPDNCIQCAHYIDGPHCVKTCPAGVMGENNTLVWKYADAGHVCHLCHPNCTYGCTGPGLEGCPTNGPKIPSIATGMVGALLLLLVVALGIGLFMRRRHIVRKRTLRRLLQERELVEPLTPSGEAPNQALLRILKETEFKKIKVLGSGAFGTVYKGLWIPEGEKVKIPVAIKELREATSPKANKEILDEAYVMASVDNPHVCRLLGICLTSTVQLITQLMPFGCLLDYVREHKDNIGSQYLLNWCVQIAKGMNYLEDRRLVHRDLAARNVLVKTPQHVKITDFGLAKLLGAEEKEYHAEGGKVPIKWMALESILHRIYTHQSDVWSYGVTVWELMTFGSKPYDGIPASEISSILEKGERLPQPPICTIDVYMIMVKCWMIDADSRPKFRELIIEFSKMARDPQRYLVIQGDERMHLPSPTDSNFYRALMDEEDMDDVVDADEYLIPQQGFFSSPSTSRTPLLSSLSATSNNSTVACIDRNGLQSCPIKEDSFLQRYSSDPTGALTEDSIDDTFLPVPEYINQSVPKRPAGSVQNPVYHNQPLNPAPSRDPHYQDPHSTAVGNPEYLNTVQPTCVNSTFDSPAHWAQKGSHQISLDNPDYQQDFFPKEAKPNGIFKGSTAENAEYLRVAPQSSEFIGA
# [2] = Ratio of IC50 for human HCC827 cells expressing EGFR E746_A750 deletion mutant to IC50 for human 16HBE cells
# A549 = assay: Antiproliferative activity against wild type EGFR/k-Ras dependent human A549 cells after 72 hrs by MTT assay; settings: A549, 72 h
# [3] = biological target: Epidermal growth factor receptor (Homo sapiens, UniProt P00533, L858R); assay: Inhibition of EGFR L858R mutant (unknown origin) using Tyr 4 peptide as substrate after 1.5 hrs by FRET based Z'-lyte assay; format: protein assay
# Chain of Epidermal growth factor receptor (Homo sapiens, UniProt P00533, L858R) (P00533 25-1210 L858R limits assumed): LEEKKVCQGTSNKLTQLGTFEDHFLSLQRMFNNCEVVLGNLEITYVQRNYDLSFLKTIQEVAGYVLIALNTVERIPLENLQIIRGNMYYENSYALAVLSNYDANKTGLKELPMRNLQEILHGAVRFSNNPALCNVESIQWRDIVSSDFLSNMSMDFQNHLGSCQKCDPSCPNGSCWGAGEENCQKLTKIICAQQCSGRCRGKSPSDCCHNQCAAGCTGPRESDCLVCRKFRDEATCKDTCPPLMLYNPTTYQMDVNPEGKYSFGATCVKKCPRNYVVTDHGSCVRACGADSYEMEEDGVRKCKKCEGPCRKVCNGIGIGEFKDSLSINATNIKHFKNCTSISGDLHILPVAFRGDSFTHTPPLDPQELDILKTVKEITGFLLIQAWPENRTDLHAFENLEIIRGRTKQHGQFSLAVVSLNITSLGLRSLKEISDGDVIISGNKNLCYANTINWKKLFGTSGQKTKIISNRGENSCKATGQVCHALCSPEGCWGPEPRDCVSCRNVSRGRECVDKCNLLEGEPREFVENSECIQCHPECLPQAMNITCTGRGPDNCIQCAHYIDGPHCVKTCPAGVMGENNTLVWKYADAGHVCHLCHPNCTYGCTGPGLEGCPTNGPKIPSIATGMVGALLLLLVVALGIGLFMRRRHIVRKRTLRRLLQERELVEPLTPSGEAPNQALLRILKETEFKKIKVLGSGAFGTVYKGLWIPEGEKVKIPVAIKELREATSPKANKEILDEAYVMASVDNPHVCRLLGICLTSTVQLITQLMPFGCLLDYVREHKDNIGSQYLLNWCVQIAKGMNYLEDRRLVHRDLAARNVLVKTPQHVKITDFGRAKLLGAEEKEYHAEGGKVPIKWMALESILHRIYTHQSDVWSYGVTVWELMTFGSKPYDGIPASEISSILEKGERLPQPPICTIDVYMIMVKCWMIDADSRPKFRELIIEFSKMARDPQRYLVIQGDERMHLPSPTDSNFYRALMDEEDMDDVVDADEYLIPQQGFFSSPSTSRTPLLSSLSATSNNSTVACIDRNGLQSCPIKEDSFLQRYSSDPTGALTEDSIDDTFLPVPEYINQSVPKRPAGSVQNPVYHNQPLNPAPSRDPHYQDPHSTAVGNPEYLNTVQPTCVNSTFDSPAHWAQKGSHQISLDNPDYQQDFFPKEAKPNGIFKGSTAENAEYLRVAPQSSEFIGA
# NCI-H1975 [4] = assay: Antiproliferative activity against human NCI-H1975 cells expressing EGFR L858R/T790M mutant after 72 hrs by MTT assay; settings: NCI-H1975, 72 h
# [5] = Antiproliferative activity against human 16HBE cells expressing wild type EGFR after 72 hrs by MTT assay; settings: 16HBE14o-
# A-431 = assay: Antiproliferative activity against human A431 cells expressing wild type EGFR after 72 hrs by MTT assay; settings: A-431, 72 h
# [6] = Antiproliferative activity against human HCC827 cells expressing EGFR E746_A750 deletion mutant after 72 hrs by MTT assay; settings: HCC827, 72 h
# NCI-H1975 [7] = assay: Ratio of IC50 for human NCI-H1975 cells expressing EGFR L858R/T790M mutant to IC50 for human 16HBE cells
# [8] = biological target: Epidermal growth factor receptor (Homo sapiens, UniProt P00533, L858R/T790M); assay: Inhibition of EGFR L858R/T790M mutant (unknown origin) using Tyr 4 peptide as substrate after 1.5 hrs by FRET based Z'-lyte assay; format: protein assay
# Chain of Epidermal growth factor receptor (Homo sapiens, UniProt P00533, L858R/T790M) (P00533 25-1210 T790M/L858R limits assumed): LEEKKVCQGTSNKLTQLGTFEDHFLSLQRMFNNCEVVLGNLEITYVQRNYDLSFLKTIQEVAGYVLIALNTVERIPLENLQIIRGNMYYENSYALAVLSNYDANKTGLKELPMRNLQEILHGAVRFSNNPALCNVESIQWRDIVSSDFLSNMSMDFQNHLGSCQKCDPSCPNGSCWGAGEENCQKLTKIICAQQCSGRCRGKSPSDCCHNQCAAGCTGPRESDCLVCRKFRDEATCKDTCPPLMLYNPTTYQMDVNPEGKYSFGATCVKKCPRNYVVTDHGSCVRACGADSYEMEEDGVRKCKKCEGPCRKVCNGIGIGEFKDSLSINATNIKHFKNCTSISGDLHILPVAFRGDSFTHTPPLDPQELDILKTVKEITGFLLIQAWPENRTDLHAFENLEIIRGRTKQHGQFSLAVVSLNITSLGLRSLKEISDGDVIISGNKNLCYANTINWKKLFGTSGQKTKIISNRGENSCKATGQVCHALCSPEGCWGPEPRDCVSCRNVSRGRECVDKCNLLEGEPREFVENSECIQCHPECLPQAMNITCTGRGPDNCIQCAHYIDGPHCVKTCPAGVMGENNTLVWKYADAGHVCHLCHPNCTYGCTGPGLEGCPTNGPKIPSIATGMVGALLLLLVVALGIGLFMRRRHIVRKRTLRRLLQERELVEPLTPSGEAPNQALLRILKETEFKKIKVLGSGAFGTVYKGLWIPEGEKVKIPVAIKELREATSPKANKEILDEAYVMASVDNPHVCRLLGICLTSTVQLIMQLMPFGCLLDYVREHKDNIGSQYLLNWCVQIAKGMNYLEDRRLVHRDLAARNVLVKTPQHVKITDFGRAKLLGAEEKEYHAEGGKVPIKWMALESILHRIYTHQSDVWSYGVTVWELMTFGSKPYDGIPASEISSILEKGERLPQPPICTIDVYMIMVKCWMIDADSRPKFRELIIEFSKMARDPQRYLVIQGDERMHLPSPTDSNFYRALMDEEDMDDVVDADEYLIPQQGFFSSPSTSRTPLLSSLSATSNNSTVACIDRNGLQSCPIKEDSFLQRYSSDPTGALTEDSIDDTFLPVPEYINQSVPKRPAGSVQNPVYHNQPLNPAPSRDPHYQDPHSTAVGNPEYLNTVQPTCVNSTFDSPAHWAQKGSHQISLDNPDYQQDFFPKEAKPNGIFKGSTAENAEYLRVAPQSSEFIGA
# NCI-H1975 [9] = assay: Induction of nitric oxide production in human NCI-H1975 cells expressing EGFR L858R/T790M mutant at 100 uM after 72 hrs by Griess assay; format: functional, cell-based
# [10] = biological target: T1, Epidermal growth factor receptor; assay: Inhibition of EGFR phosphorylation in human NCI-H1975 cells assessed as reduction of phosphorylated Erk level at 1 uM after 6 hrs by Western blotting analysis; format: cell-based
# [11] = biological target: T1, Epidermal growth factor receptor; assay: Inhibition of EGFR phosphorylation in human NCI-H1975 cells assessed as reduction of phosphorylated Akt level at 1 uM after 6 hrs by Western blotting analysis; format: cell-based
# [12] = biological target: T1, Epidermal growth factor receptor; assay: Inhibition of EGFR phosphorylation in human NCI-H1975 cells at 0.01 to 1 uM after 6 hrs by Western blotting analysis; format: cell-based
# 16HBE14o- = assay: Induction of nitric oxide production in human 16HBE cells expressing wild type EGFR at 100 uM after 72 hrs by Griess assay; format: functional, cell-based
# NCI-H1975 [13] = assay: Antiproliferative activity against human NCI-H1975 cells expressing EGFR L858R/T790M mutant at 1 to 20 uM after 24 hrs by MTT assay in presence of hemoglobin; format: functional, cell-based
# [14] = biological target: T1, Epidermal growth factor receptor; assay: Inhibition of EGFR phosphorylation in human NCI-H1975 cells after 6 hrs by Western blotting analysis; format: cell-based
IC50 [1] [µM],IC50 (A549) [µM],IC50 [3] [µM],IC50 (NCI-H1975 [4]) [µM],IC50 (A-431) [µM],IC50 [8] [µM],inhibition [10],inhibition [11],inhibition [12],inhibition [14],Compound,Ratio IC50 [2],IC50 [5] [µM],IC50 [6] [µM],Ratio IC50 (NCI-H1975 [7]),Activity (NCI-H1975 [9]),Activity (16HBE14o-),Activity (NCI-H1975 [13])
0.13,4.19,0.15,0.052,1.36,0.019,,,,,COc1cc(N2CCN(C)CC2)ccc1Nc1ncc(Cl)c(Oc2cccc(COc3no[n+]([O-])c3S(=O)(=O)c3ccccc3)c2)n1,35,2.21,0.063,35,,,
3.15,4.25,3.22,0.148,0.357,0.25,,,,,COc1cc(N2CCC(O)CC2)ccc1Nc1ncc(Cl)c(Oc2ccc(COc3no[n+]([O-])c3S(=O)(=O)c3ccccc3)cc2)n1,,2.19,0.095,,,,
1.09,3.66,1.53,0.221,2.2,0.14,,,,,COc1cc(N2CCN(C)CC2)ccc1Nc1ncc(Cl)c(Oc2ccc(COc3no[n+]([O-])c3S(=O)(=O)c3ccccc3)cc2)n1,,2.3,0.863,,,,
2.94,3.75,5.36,0.372,0.479,0.96,,,,,COc1cc(N2CCN(C)CC2)ccc1Nc1ncc(Cl)c(Oc2ccc(CCOc3no[n+]([O-])c3S(=O)(=O)c3ccccc3)cc2)n1,,2.42,1.93,,Active,,
,,,,,,Active,Active,Active,,C=CC(=O)Nc1cccc(Oc2nc(Nc3ccc(N4CCN(C)CC4)cc3OC)ncc2Cl)c1,,,,,,,
0.24,3.91,0.49,0.068,1.2,0.068,,,,,COc1cc(N2CCC(O)CC2)ccc1Nc1ncc(Cl)c(Oc2cccc(COc3no[n+]([O-])c3S(=O)(=O)c3ccccc3)c2)n1,35,3.25,0.036,35,Active,Active,
,,,,,,,,,,COc1cc2ncnc(Nc3ccc(F)c(Cl)c3)c2cc1OCCCN1CCOCC1,,,,,Active,Active,
0.35,1.72,0.37,0.055,0.348,0.045,Active,Active,Active,Dose-dependent effect,C=CC(=O)N1CCN(c2ccc(Nc3ncc(Cl)c(Oc4cccc(COc5no[n+]([O-])c5S(=O)(=O)c5ccccc5)c4)n3)c(OC)c2)CC1,35,1.93,0.022,35,Active,Active,Active
2.28,2.83,> 10,0.315,0.551,0.78,,,,,COc1cc(N2CCN(C)CC2)ccc1Nc1ncc(Cl)c(Oc2ccc(CCCOc3no[n+]([O-])c3S(=O)(=O)c3ccccc3)cc2)n1,,3.52,4.82,,Active,,
> 10,3.9,> 10,0.154,4.66,0.41,,,,,C=CC(=O)N1CCN(c2ccc(Nc3ncc(Cl)c(Oc4ccc(COc5no[n+]([O-])c5S(=O)(=O)c5ccccc5)cc4)n3)c(OC)c2)CC1,,3.37,4.9,,,,
